Patent publication US20140243395A1, “SPRAY SYSTEM FOR PRODUCTION OF A MATRIX FORMED IN SITU” (ETHRIS GMBH, priority 2011, published 2014)

What was measured:
[1] = viscosity of solvents, rotational viscometer; type: physicochemical; details: 25° C.
[2] = system: mouse; details: i.v., 20% solution; cited from earlier work
[3] = system: rat; details: i.v., 40% DMI in isotonic saline solution (v/v); cited from earlier work
[4] = solubility of PLGA in the solvent, Matschke et al. 2002; cited from earlier work
[5] = in vivo; cited from earlier work
[6] = system: mesothelial cells; details: human
Procedure: In addition to 10% fetal calf serum (PPA Laboratories, Austria) an epidermal growth factor (5 ng/ml, Sigma-Aldrich, Germany) and hydrocortisone (400 ng/ml, Sigma-Aldrich, Germany) were added to the medium. Furthermore, the cells were passaged at a confluence of about 80% and used for tests up to a passage of 20.
The cytotoxicity of the solvent was determined by an ATP-based assay (ATPlite, Perkin Elmer). […] After the incubation period, the medium was sucked off, the cells were washed once with PBS, 50 μl PBS per well was added, and the cell viability was determined according to the manufacturer's instructions. […] For each point in time, the concentration of the solvent was plotted against the measured cell viability (mean values±standard deviation from n=4 runs) and a non-linear standard function was adapted: […]
The LD50 values were taken from the estimated values of the plotted regression curve. It is the concentration at which a cell viability of still 50% could be measured.
In addition, the influence of the solvent on the metabolic cell viability was studied for a period of 11 hours. Metabolic cell viability is determined by the ATP value of the cells, which is a measure of viability. […]

Molecule | η (kinematic viscosity) [1] [mPas] | PLGA solubility [4] [%] | further results
tetrahydrofurfuryl alcohol polyethyleneglycol [tetraglycol] | 16.6 |  | 
CCOC(=O)[C@H](C)O [Ethyl l-lactate] | 2.74 |  | 
CO[C@H]1CO[C@H]2[C@@H]1OC[C@H]2OC [DMI, Dimethyl isosorbide] | 8.16 | 41 | LD50 [2]: 6.9 g/kg body weight; LD50 [3]: 5.4 g/kg body weight
Alteplase: recombinantly produced t-PA protein |  |  | half-life in plasma [5]: 3 to 6 min
glycerol formal | 14.4 | 33 | tolerance (LD50) higher by a factor compared to tetraglycol [6]: 400
CC(=O)OCC(COC(C)=O)OC(C)=O [Triacetin] | 18.75 | 35 | 
